Target: T1, ACC deaminase (1-aminocyclopropane-1-carboxylic acid deaminase) (Pseudomonas sp. ACP, UniProt Q00740)
T1 sequence (Q00740 1-338): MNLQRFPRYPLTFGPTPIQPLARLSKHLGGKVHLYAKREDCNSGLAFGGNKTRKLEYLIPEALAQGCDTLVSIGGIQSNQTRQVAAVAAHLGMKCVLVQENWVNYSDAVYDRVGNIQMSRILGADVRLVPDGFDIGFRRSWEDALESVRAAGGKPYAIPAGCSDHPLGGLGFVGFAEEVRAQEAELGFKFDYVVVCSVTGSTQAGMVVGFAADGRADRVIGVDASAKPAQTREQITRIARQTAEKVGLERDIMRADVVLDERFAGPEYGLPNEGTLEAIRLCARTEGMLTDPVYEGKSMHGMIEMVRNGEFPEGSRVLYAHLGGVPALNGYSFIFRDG
Format: biochemical

In the case of `NC1(C(=O)O)CC1(F)F` (racemic) [compound 3, 1-Amino-2,2-difluorocyclopropane-1-carboxylic acid], the Ki is reported as 120 ± 40 nM.

— publication PMC5024786 (Organic letters, 2015)
